Earlier results in patent US10653698B2, “Methods of improving myocardial performance in Fontan patients using udenafil compositions” (priority 2014, dated 2020).

How the values were obtained:
[1] = test system: children and young adults with single-ventricle physiology after the Fontan operation; conditions: Shabanian et al. 2013; cited from earlier work
[2] = test system: patients with Fontan circulation; conditions: short term, once daily dosing; cited from earlier work

| Compound | ventricular systolic elastance [1] | ventriculo-arterial coupling [1] | exercise capacity [2] | ventilatory efficiency and oxygen saturation [2] |
| --- | --- | --- | --- | --- |
| CCCc1nn(C)c2c(=O)[nH]c(-c3cc(S(=O)(=O)N4CCN(C)CC4)ccc3OCC)nc12 [sildenafil] | increased | improved | – | – |
| CN1CC(=O)N2[C@H](c3ccc4c(c3)OCO4)c3[nH]c4ccccc4c3C[C@@H]2C1=O [tadalafil] | – | – | unchanged | improved |
